# From patent US11931424B2, “Combination MCL-1 inhibitors with anti-body drug conjugates” (Gilead Sciences, Inc., priority 2021, dated 2024)
# Test system: panel of breast cancer cell lines
# Assay: Compound A with targeted agents and chemotherapies, 72-hour in vitro proliferation assays
# Assay type: cell-based
# Conditions: 72-hour proliferation
# [1] = BT-20 cell line, compound A × partner
# [2] = CAL-51 cell line, compound A × partner
# [3] = CAL-85-1 cell line, compound A × partner
# [4] = CAL-120 cell line, compound A × partner
# [5] = CAL-148 cell line, compound A × partner
# [6] = CAMA-1 cell line, compound A × partner
# [7] = DU-4475 cell line, compound A × partner
# [8] = EVSA-T cell line, compound A × partner
# [9] = HCC1143 cell line, compound A × partner
# [10] = MCF7 cells, Compound A × partner agent
# [11] = AU565 cell line, compound A × partner
smiles,measurement,setting,value
CCN1CCN(Cc2ccc(Nc3ncc(F)c(-c4cc(F)c5nc(C)n(C(C)C)c5c4)n3)nc2)CC1 [Abemaciclib],Best CI,[1],0.79
same,Bliss Volume,[1],3.95
same,HSA volume,[1],5.53
same,Loewe Volume,[1],5.32
same,Best CI,[2],1.31
same,Bliss Volume,[2],1.55
same,HSA volume,[2],−0.56
same,Loewe Volume,[2],2.06
same,Synergy Score,[2],2.51
same,Best CI,[3],0.77
same,Bliss Volume,[3],2.60
same,HSA volume,[3],3.28
same,Loewe Volume,[3],3.04
same,Synergy Score,[3],6.47
same,Best CI,[4],1.78
same,Bliss Volume,[4],−5.16
same,HSA volume,[4],−5.98
same,Loewe Volume,[4],−5.00
same,Synergy Score,[4],1.03
same,Best CI,[5],0.70
same,Bliss Volume,[5],6.48
same,HSA volume,[5],5.91
same,Loewe Volume,[5],6.28
same,Synergy Score,[5],15.50
same,Best CI,[6],0.32
same,Bliss Volume,[6],−6.25
same,HSA volume,[6],−10.24
same,Loewe Volume,[6],−10.33
same,Synergy Score,[6],1.56
same,Best CI,[7],1.25
same,Bliss Volume,[7],6.92
same,HSA volume,[7],5.32
same,Loewe Volume,[7],5.72
same,Synergy Score,[7],5.07
same,Best CI,[8],0.64
same,Bliss Volume,[8],0.41
same,HSA volume,[8],−2.86
same,Loewe Volume,[8],−2.48
same,Synergy Score,[8],0.77
same,Best CI,"HCC38, compound A × partner",0.83
same,Bliss Volume,"HCC38, compound A × partner",−4.64
same,HSA volume,"HCC38, compound A × partner",−4.71
same,Loewe Volume,"HCC38, compound A × partner",−4.54
same,Synergy Score,"HCC38, compound A × partner",6.14
same,Best CI,"HCC70, compound A × partner",0.92
same,Bliss Volume,"HCC70, compound A × partner",10.18
same,HSA volume,"HCC70, compound A × partner",6.99
same,Loewe Volume,"HCC70, compound A × partner",8.33
same,Synergy Score,"HCC70, compound A × partner",18.15
same,Best CI,[9],0.41
same,Bliss Volume,[9],10.33
same,HSA volume,[9],2.87
same,Loewe Volume,[9],9.43
same,Synergy Score,[9],7.43
same,Best CI,"HCC1569, compound A × partner",0.18
same,Bliss Volume,"HCC1569, compound A × partner",14.07
same,HSA volume,"HCC1569, compound A × partner",13.17
same,Loewe Volume,"HCC1569, compound A × partner",14.38
same,Synergy Score,"HCC1569, compound A × partner",19.73
same,Bliss Volume,"HCC1806, compound A × partner",4.89
same,HSA volume,"HCC1806, compound A × partner",0.30
same,Loewe Volume,"HCC1806, compound A × partner",3.10
same,Synergy Score,"HCC1806, compound A × partner",4.43
same,Best CI,"HCC1937, compound A × partner",0.26
same,Bliss Volume,"HCC1937, compound A × partner",16.67
same,Loewe Volume,"HCC1937, compound A × partner",16.44
same,Synergy Score,"HCC1937, compound A × partner",28.56
same,Best CI,"HCC1954, compound A × partner",0.89
same,Bliss Volume,"HCC1954, compound A × partner",1.45
same,HSA volume,"HCC1954, compound A × partner",−0.39
same,Loewe Volume,"HCC1954, compound A × partner",−1.29
same,Synergy Score,"HCC1954, compound A × partner",12.74
same,Best CI,"HCC2218, compound A × partner",1.44
same,Bliss Volume,"HCC2218, compound A × partner",−2.40
same,HSA volume,"HCC2218, compound A × partner",−5.74
same,Loewe Volume,"HCC2218, compound A × partner",−6.61
same,Synergy Score,"HCC2218, compound A × partner",4.14
same,Best CI,"HDQ-P1, compound A × partner",0.82
same,Bliss Volume,"HDQ-P1, compound A × partner",−0.79
same,HSA volume,"HDQ-P1, compound A × partner",−0.19
same,Loewe Volume,"HDQ-P1, compound A × partner",0.43
same,Synergy Score,"HDQ-P1, compound A × partner",2.48
same,Best CI,"HMC-1-8, compound A × partner",0.30
same,Bliss Volume,"HMC-1-8, compound A × partner",24.27
same,HSA volume,"HMC-1-8, compound A × partner",13.46
same,Loewe Volume,"HMC-1-8, compound A × partner",13.14
same,Synergy Score,"HMC-1-8, compound A × partner",24.23
same,Best CI,"JIMT-1, compound A × partner",1.23
same,Bliss Volume,"JIMT-1, compound A × partner",1.74
same,HSA volume,"JIMT-1, compound A × partner",1.30
same,Loewe Volume,"JIMT-1, compound A × partner",1.54
same,Synergy Score,"JIMT-1, compound A × partner",1.34
same,Best CI,"KPL-1, compound A × partner",0.77
same,Bliss Volume,"KPL-1, compound A × partner",−3.02
same,HSA volume,"KPL-1, compound A × partner",−1.63
same,Loewe Volume,"KPL-1, compound A × partner",−2.87
same,Best CI,[10],1.06
same,Bliss Volume,[10],4.62
same,HSA volume,[10],4.76
same,Synergy Score,[10],8.46
Cn1ncnc1[C@H]1c2n[nH]c(=O)c3cc(F)cc(c23)N[C@@H]1c1ccc(F)cc1 [BMN 673],Best CI,[11],0.72
same,Bliss Volume,[11],5.62
same,HSA volume,[11],2.94
same,Synergy Score,[11],8.12
same,Best CI,[1],0.67
same,Bliss Volume,[1],6.61
same,HSA volume,[1],7.19
same,Loewe Volume,[1],7.05
same,Synergy Score,[1],13.00
same,Best CI,[2],0.26
same,Bliss Volume,[2],6.45
same,HSA volume,[2],8.03
same,Loewe Volume,[2],8.01
same,Synergy Score,[2],6.14
same,Best CI,[3],0.10
same,Bliss Volume,[3],9.61
same,HSA volume,[3],13.84
same,Loewe Volume,[3],13.04
same,Synergy Score,[3],13.48
same,Best CI,[4],2.73
same,Bliss Volume,[4],−3.70
same,HSA volume,[4],−7.12
same,Loewe Volume,[4],−9.94
same,Synergy Score,[4],0.01
same,Best CI,[5],0.03
same,Bliss Volume,[5],32.27
same,HSA volume,[5],30.51
same,Loewe Volume,[5],33.70
same,Synergy Score,[5],51.37
same,Best CI,[6],0.44
same,Bliss Volume,[6],14.84
same,HSA volume,[6],11.15
same,Loewe Volume,[6],11.46
same,Best CI,[7],0.90
same,Bliss Volume,[7],14.54
same,HSA volume,[7],11.67
same,Loewe Volume,[7],11.80
same,Synergy Score,[7],12.59
same,Best CI,[8],0.76
same,Bliss Volume,[8],12.51
same,HSA volume,[8],5.77
same,Loewe Volume,[8],5.78
same,Synergy Score,[8],7.17
same,Best CI,"HCC38, compound A × partner",0.09
same,Bliss Volume,"HCC38, compound A × partner",12.68
same,Loewe Volume,"HCC38, compound A × partner",13.43
same,Synergy Score,"HCC38, compound A × partner",20.73
same,Best CI,"HCC70, compound A × partner",0.39
same,Bliss Volume,"HCC70, compound A × partner",15.24
same,HSA volume,"HCC70, compound A × partner",15.02
same,Loewe Volume,"HCC70, compound A × partner",15.13
same,Best CI,[9],0.53
same,Bliss Volume,[9],0.82
same,HSA volume,[9],2.15
same,Loewe Volume,[9],1.38
same,Synergy Score,[9],4.91
same,Best CI,"HCC1569, compound A × partner",0.55
same,Bliss Volume,"HCC1569, compound A × partner",9.55
same,HSA volume,"HCC1569, compound A × partner",11.82
same,Loewe Volume,"HCC1569, compound A × partner",11.51
same,Synergy Score,"HCC1569, compound A × partner",10.50
same,Best CI,"HCC1806, compound A × partner",0.15
same,Bliss Volume,"HCC1806, compound A × partner",15.34
same,HSA volume,"HCC1806, compound A × partner",21.19
same,Loewe Volume,"HCC1806, compound A × partner",21.61
same,Synergy Score,"HCC1806, compound A × partner",26.09
same,Best CI,"HCC1937, compound A × partner",0.51
same,Bliss Volume,"HCC1937, compound A × partner",5.18
same,HSA volume,"HCC1937, compound A × partner",0.65
same,Loewe Volume,"HCC1937, compound A × partner",4.96
same,Synergy Score,"HCC1937, compound A × partner",3.27
same,Best CI,"HCC1954, compound A × partner",0.56
same,Bliss Volume,"HCC1954, compound A × partner",7.66
same,HSA volume,"HCC1954, compound A × partner",7.39
same,Loewe Volume,"HCC1954, compound A × partner",8.33
same,Synergy Score,"HCC1954, compound A × partner",9.80
same,Best CI,"HCC2218, compound A × partner",0.90
same,Bliss Volume,"HCC2218, compound A × partner",1.41
same,HSA volume,"HCC2218, compound A × partner",0.71
same,Loewe Volume,"HCC2218, compound A × partner",0.15
same,Synergy Score,"HCC2218, compound A × partner",5.35
same,Best CI,"HDQ-P1, compound A × partner",0.91
same,Bliss Volume,"HDQ-P1, compound A × partner",0.31
same,HSA volume,"HDQ-P1, compound A × partner",−0.95
same,Loewe Volume,"HDQ-P1, compound A × partner",−0.15
same,Synergy Score,"HDQ-P1, compound A × partner",1.09
same,Best CI,"HMC-1-8, compound A × partner",0.22
same,Bliss Volume,"HMC-1-8, compound A × partner",22.38
same,HSA volume,"HMC-1-8, compound A × partner",11.38
same,Loewe Volume,"HMC-1-8, compound A × partner",11.09
same,Synergy Score,"HMC-1-8, compound A × partner",19.54
same,Best CI,"JIMT-1, compound A × partner",0.13
same,Bliss Volume,"JIMT-1, compound A × partner",−0.56
same,HSA volume,"JIMT-1, compound A × partner",−1.70
same,Loewe Volume,"JIMT-1, compound A × partner",−1.62
same,Synergy Score,"JIMT-1, compound A × partner",1.28
same,Best CI,"KPL-1, compound A × partner",0.53
same,Bliss Volume,"KPL-1, compound A × partner",−2.58
same,HSA volume,"KPL-1, compound A × partner",0.29
same,Synergy Score,"KPL-1, compound A × partner",1.84
